Reference: patent publication US20210261512A1, “NOVEL COMPOUNDS” (INFLAZOME LIMITED, priority 2018, published 2021)

How the values were obtained:
NLRP3 [1] = target: T1, NLRP3 (Homo sapiens, UniProt Q96P20); test: THP-1 cells pyroptosis assay; assay type: cell-based; design: Seed THP-1 cells (25,000 cells/well) containing 1.0 μg/ml LPS; host or cells: THP-1; details: LPS 1.0 μg/ml, nigericin 5 μM, resazurin readout, 10 μM top dose (Example 2: top dose of 30 μM)
In short: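 THP-1 cells (25,000/well) primed with 1 μg/ml LPS in serum-free RPMI, treated with compound (8-point dilution, 10 μM top unless stated; 0.1% DMSO) 3 h at 37°C, then nigericin 5 μM 1 h. Viability read by resazurin (100 μM, 1-2 h) fluorescence; IC50 from 4-parameter fit.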

NLRP3 [2] = target: T1, NLRP3; test: Human whole blood IL1β release assay; assay type: cell-based; details: LPS 1 μg/ml, nigericin 10 μM, IL-1β AlphaLisa, 10 μM top dose (Example 2: top dose of 30 μM), read-out: HWB IC50
Description: For systemic delivery, the ability to inhibit NLRP3 when the compounds are present within the bloodstream is of great importance. For this reason, the NLRP3 inhibitory activity of a number of compounds in human whole blood was investigated in accordance with the following protocol.
Human whole blood in sodium-heparin or lithium-heparin tubes was obtained from healthy donors from a volunteer donor panel. • 1. Plate out 80 μl of whole blood containing 1 μg/ml of LPS in 96-well, clear bottom cell culture plate (Corning #3585) • 2. Add 10 μl compound (8 points half-log dilution with 10 μM top dose, unless stated otherwise) or vehicle (DMSO 0.1% FAC) to the appropriate wells • 3. Incubate for 3 hrs at 37° C., 5% CO2 • 4. Add 10 μl nigericin (Sigma #N7143) (10 μM FAC) to all wells • 5. Incubate for 1 hr at 37° C., 5% CO2 • 6. At the end of the incubation period, spin plates at 300×g for 5 mins to pellet cells and remove 20 μl of supernatant and add to 96-well v-bottom plates for IL-1β analysis (note: these plates containing the supernatants can be stored at −80° C. to be analysed at a later date) • 7. IL-1β was measured according to the manufacturer protocol (Perkin Elmer-AlphaLisa IL-1 Kit AL220F-5000) • 8. IC50 data is fitted to a non-linear regression equation (log inhibitor vs response-variable slope 4-parameters)

T1 sequence (Q96P20 whole entry): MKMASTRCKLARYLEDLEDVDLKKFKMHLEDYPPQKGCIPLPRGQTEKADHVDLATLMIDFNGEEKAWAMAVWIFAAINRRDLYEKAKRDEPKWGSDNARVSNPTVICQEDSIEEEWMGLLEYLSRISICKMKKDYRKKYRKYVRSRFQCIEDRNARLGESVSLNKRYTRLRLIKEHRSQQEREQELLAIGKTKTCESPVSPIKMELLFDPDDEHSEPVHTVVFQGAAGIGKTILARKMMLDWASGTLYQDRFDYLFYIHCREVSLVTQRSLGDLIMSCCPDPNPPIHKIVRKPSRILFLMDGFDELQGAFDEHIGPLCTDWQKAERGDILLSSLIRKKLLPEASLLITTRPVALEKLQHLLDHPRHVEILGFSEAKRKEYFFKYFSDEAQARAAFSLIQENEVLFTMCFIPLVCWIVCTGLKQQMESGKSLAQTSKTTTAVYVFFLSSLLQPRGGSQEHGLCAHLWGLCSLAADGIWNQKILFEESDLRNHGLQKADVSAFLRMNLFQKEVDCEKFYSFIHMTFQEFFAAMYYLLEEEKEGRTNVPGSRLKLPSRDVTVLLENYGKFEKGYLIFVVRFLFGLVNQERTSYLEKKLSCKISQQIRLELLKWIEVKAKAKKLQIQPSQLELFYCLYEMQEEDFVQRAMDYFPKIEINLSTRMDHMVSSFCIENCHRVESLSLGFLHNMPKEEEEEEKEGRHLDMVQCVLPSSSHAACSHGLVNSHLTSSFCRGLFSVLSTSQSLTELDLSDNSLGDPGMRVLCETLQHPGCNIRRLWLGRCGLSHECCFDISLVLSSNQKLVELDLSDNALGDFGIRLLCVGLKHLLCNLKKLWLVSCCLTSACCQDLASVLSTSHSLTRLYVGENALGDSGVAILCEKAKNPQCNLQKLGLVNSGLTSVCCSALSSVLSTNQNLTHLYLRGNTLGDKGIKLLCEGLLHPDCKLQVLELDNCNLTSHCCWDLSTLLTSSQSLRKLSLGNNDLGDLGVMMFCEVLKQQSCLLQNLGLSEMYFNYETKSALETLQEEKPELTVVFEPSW

| IC50 (NLRP3 [1]) | IC50 (NLRP3 [2]) | SMILES |
| --- | --- | --- |
| ≤ 10 µM | ≤ 30 µM | O=S(=O)(Cc1ccccc1)c1nnc(Nc2c3c(cc4c2CCC4)CCC3)[nH]1 [Example 2, 5-(benzylsulfonyl)-N-(1,2,3,5,6,7-hexahydro-s-indacen-4-yl)-4H-1,2,4-triazol-3-amine] |
| ≤ 0.5 µM | ≤ 10 µM | CC(c1cc(S(=O)(=O)c2nnc(Nc3c4c(cc5c3CCC5)CCC4)[nH]2)nn1C)N(C)C (stereo not shown) [Example 5, 5-((5-(1-(dimethylamino)ethyl)-1-methyl-1H-pyrazol-3-yl)sulfonyl)-N-(1,2,3,5,6,7-hexahydro-s-indacen-4-yl)-4H-1,2,4-triazol-3-amine] |
| ≤ 1 µM | ≤ 10 µM | COC1(c2cc(S(=O)(=O)c3nnc(Nc4c5c(cc6c4CCC6)CCC5)[nH]3)nn2C)COC1 [Example 12, N-(1,2,3,5,6,7-hexahydro-s-indacen-4-yl)-5-((5-(3-methoxyoxetan-3-yl)-1-methyl-1H-pyrazol-3-yl)sulfonyl)-4H-1,2,4-triazol-3-amine] |
| ≤ 0.5 µM | ≤ 10 µM | COC(C)(C)Cn1ccc(S(=O)(=O)c2nnc(Nc3c4c(cc5c3CCC5)CCC4)[nH]2)n1 [Example 18, N-(1,2,3,5,6,7-hexahydro-s-indacen-4-yl)-5-((1-(2-methoxy-2-methylpropyl)-1H-pyrazol-3-yl)sulfonyl)-4H-1,2,4-triazol-3-amine] |
| ≤ 1 µM | ≤ 5 µM | COc1cc(-c2ccc3c(c2Nc2nnc(S(=O)(=O)c4ccn(C(C)C)n4)[nH]2)CCC3)ccn1 [Example 34, 5-((1-isopropyl-1H-pyrazol-3-yl)sulfonyl)-N-(5-(2-methoxypyridin-4-yl)-2,3-dihydro-1H-inden-4-yl)-4H-1,2,4-triazol-3-amine] |
| ≤ 5 µM | ≤ 10 µM | CC(C)n1ccc(S(=O)(=O)c2nnc(Nc3c(-c4ccncc4)cc(F)c4c3CCC4)[nH]2)n1 [Example 36, N-(7-fluoro-5-(pyridin-4-yl)-2,3-dihydro-1H-inden-4-yl)-5-((1-isopropyl-1H-pyrazol-3-yl)sulfonyl)-4H-1,2,4-triazol-3-amine] |
| ≤ 0.5 µM | ≤ 5 µM | CN(C)Cc1cccc(S(=O)(=O)c2nnc(Nc3c4c(cc5c3CCC5)CCC4)[nH]2)c1 [Example 44, 5-((3-((dimethylamino)methyl)phenyl)sulfonyl)-N-(1,2,3,5,6,7-hexahydro-s-indacen-4-yl)-4H-1,2,4-triazol-3-amine] |
| ≤ 1 µM | ≤ 5 µM | CCN(CC)CCS(=O)(=O)c1nnc(Nc2c3c(cc4c2CCC4)CCC3)[nH]1 [Example 46, 5-((2-(diethylamino)ethyl)sulfonyl)-N-(1,2,3,5,6,7-hexahydro-s-indacen-4-yl)-4H-1,2,4-triazol-3-amine] |
| ≤ 0.5 µM | ≤ 1 µM | CN1CCCCC1CCS(=O)(=O)c1nnc(Nc2c3c(cc4c2CCC4)CCC3)[nH]1 (stereo not shown) [Example 59, N-(1,2,3,5,6,7-Hexahydro-s-indacen-4-yl)-3-((2-(1-methylpiperidin-2-yl)ethyl)sulfonyl)-1H-1,2,4-triazol-5-amine] |
| ≤ 1 µM | ≤ 5 µM | CCN(CC)CCCS(=O)(=O)c1nnc(Nc2c(-c3ccncc3)cc(F)c3c2CCC3)[nH]1 [Example 77, 5-((3-(diethylamino)propyl)sulfonyl)-N-(7-fluoro-5-(pyridin-4-yl)-2,3-dihydro-1H-inden-4-yl)-4H-1,2,4-triazol-3-amine] |
| ≤ 1 µM | ≤ 5 µM | CCN(CC)CCN(C)S(=O)(=O)c1nnc(Nc2c3c(cc4c2CCC4)CCC3)[nH]1 [Example 80, N-(2-(diethylamino)ethyl)-3-((1,2,3,5,6,7-hexahydro-s-indacen-4-yl)amino)-N-methyl-1H-1,2,4-triazole-5-sulfonamide] |
| ≤ 5 µM | ≤ 1 µM | CN1CCC(N(C)S(=O)(=O)c2nnc(Nc3c4c(cc5c3CCC5)CCC4)[nH]2)C1 (stereo not shown) [Example 87, 5-((1,2,3,5,6,7-hexahydro-s-indacen-4-yl)amino)-N-methyl-N-(1-methylpyrrolidin-3-yl)-4H-1,2,4-triazole-3-sulfonamide] |
| ≤ 1 µM | ≤ 5 µM | O=S(=O)(NCCN1CCC1)c1nnc(Nc2c3c(cc4c2CCC4)CCC3)[nH]1 [Example 89, N-(2-(azetidin-1-yl)ethyl)-5-((1,2,3,5,6,7-hexahydro-s-indacen-4-yl)amino)-4H-1,2,4-triazole-3-sulfonamide] |
| ≤ 5 µM | ≤ 5 µM | CN(C)C1CN(S(=O)(=O)c2nnc(Nc3c4c(cc5c3CCC5)CCC4)[nH]2)C1 [Example 91, 5-((3-(dimethylamino)azetidin-1-yl)sulfonyl)-N-(1,2,3,5,6,7-hexahydro-s-indacen-4-yl)-4H-1,2,4-triazol-3-amine] |
| ≤ 5 µM | ≤ 5 µM | CN(C)C1CCN(S(=O)(=O)c2nnc(Nc3c4c(cc5c3CCC5)CCC4)[nH]2)C1 (stereo not shown) [Example 93, 5-((3-(dimethylamino)pyrrolidin-1-yl)sulfonyl)-N-(1,2,3,5,6,7-hexahydro-s-indacen-4-yl)-4H-1,2,4-triazol-3-amine] |
| ≤ 1 µM | ≤ 5 µM | CN1CCCC1CNS(=O)(=O)c1nnc(Nc2c3c(cc4c2CCC4)CCC3)[nH]1 (stereo not shown) [Example 95, 5-((1,2,3,5,6,7-hexahydro-s-indacen-4-yl)amino)-N-((1-methylpyrrolidin-2-yl)methyl)-4H-1,2,4-triazole-3-sulfonamide] |
| ≤ 0.5 µM | ≤ 5 µM | O=S(=O)(c1nnc(Nc2c3c(cc4c2CCC4)CCC3)[nH]1)N1CCC(N2CCCC2)C1 (stereo not shown) [Example 104, 5-([1,3′-bipyrrolidin]-1′-ylsulfonyl)-N-(1,2,3,5,6,7-hexahydro-s-indacen-4-yl)-4H-1,2,4-triazol-3-amine] |
| ≤ 0.5 µM | ≤ 5 µM | O=S(=O)(NCCN1CCCC1)c1nnc(Nc2c3c(cc4c2CCC4)CCC3)[nH]1 [Example 108, 5-((1,2,3,5,6,7-hexahydro-s-indacen-4-yl)amino)-N-(2-(pyrrolidin-1-yl)ethyl)-4H-1,2,4-triazole-3-sulfonamide] |
| ≤ 0.5 µM | ≤ 1 µM | CCN(CC)CCCNS(=O)(=O)c1nnc(Nc2c3c(cc4c2CCC4)CCC3)[nH]1 [Example 109, N-(3-(diethylamino)propyl)-5-((1,2,3,5,6,7-hexahydro-s-indacen-4-yl)amino)-4H-1,2,4-triazole-3-sulfonamide] |
| ≤ 0.5 µM | ≤ 10 µM | CC(C)N(CCNS(=O)(=O)c1nnc(Nc2c3c(cc4c2CCC4)CCC3)[nH]1)C(C)C [Example 110, N-(2-(diisopropylamino)ethyl)-5-((1,2,3,5,6,7-hexahydro-s-indacen-4-yl)amino)-4H-1,2,4-triazole-3-sulfonamide] |
| ≤ 1 µM | ≤ 5 µM | CC(C)N1CCN(S(=O)(=O)c2nnc(Nc3c4c(cc5c3CCC5)CCC4)[nH]2)CC1 [Example 117, N-(1,2,3,5,6,7-hexahydro-s-indacen-4-yl)-5-((4-isopropylpiperazin-1-yl)sulfonyl)-4H-1,2,4-triazol-3-amine] |
| ≤ 5 µM | ≤ 5 µM | CN(C1CNC1)S(=O)(=O)c1nnc(Nc2c3c(cc4c2CCC4)CCC3)[nH]1 [Example 120, N-(azetidin-3-yl)-5-((1,2,3,5,6,7-hexahydro-s-indacen-4-yl)amino)-N-methyl-4H-1,2,4-triazole-3-sulfonamide] |
| ≤ 5 µM | ≤ 10 µM | O=S(=O)(c1nnc(Nc2c3c(cc4c2CCC4)CCC3)[nH]1)N1CCCC1 [Example 122, N-(1,2,3,5,6,7-hexahydro-s-indacen-4-yl)-5-(pyrrolidin-1-ylsulfonyl)-4H-1,2,4-triazol-3-amine] |
| ≤ 1 µM | ≤ 5 µM | O=S(=O)(c1nnc(Nc2c3c(cc4c2CCC4)CCC3)[nH]1)N1CCC(N2CCCC2)CC1 [Example 124, N-(1,2,3,5,6,7-hexahydro-s-indacen-4-yl)-5-((4-(pyrrolidin-1-yl)piperidin-1-yl)sulfonyl)-4H-1,2,4-triazol-3-amine] |
| ≤ 0.5 µM | ≤ 5 µM | CN(C)CCCNS(=O)(=O)c1nnc(Nc2c3c(cc4c2CCC4)CCC3)[nH]1 [Example 125, N-(3-(dimethylamino)propyl)-5-((1,2,3,5,6,7-hexahydro-s-indacen-4-yl)amino)-4H-1,2,4-triazole-3-sulfonamide] |
| ≤ 1 µM | ≤ 5 µM | O=S(=O)(NCCCN1CCCC1)c1nnc(Nc2c3c(cc4c2CCC4)CCC3)[nH]1 [Example 126, 5-((1,2,3,5,6,7-hexahydro-s-indacen-4-yl)amino)-N-(3-(pyrrolidin-1-yl)propyl)-4H-1,2,4-triazole-3-sulfonamide] |
